Reference: patent US7855292B2, “Sulfonamide compounds” (Janssen Pharmaceutica NV, priority 2004, dated 2010)

Columns and labels:
CCK2 receptor = target: T1, CCK2 receptor (Homo sapiens, UniProt P32239); assay: CCK2 binding assay ([125I]-BH-CCK-8S displacement, HEKZFP membranes); settings: membranes of doxycycline-induced HEKZFP cells; 20 pM [125I]-BH-CCK-8S; 60 min at 21±3° C.; read-out: CCK2 pKi (converted)
T1 construct: analyzed for ZFP expression as well as CCK2R induction upon addition of doxycycline to the culture medium; endogenous in cells
T1 sequence (P32239 1-447): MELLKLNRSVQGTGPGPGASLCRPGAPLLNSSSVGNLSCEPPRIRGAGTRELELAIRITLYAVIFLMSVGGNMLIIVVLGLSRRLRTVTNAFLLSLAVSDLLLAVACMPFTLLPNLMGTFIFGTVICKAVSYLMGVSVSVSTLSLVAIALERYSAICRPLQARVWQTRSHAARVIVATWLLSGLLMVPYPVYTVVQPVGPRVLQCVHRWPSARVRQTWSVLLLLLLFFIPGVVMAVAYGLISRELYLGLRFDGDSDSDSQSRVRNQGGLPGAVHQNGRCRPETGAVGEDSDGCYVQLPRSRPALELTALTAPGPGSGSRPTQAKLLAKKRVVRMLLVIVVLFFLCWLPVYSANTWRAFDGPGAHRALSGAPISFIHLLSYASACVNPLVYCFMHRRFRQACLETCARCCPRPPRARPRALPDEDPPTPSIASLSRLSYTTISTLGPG

CCK-1 receptor = target: T2, CCK-1 receptor (Homo sapiens, UniProt P32238); assay: CCK1 binding assay ([125I]-BH-CCK-8S displacement, CHO-K1 membranes); settings: membranes of CHO-K1 cells stably transfected with the CCK-1 receptor; 20 pM [125I]-BH-CCK-8S; 0.3 μM PD-134,308 present; 60 min at 21±3° C.; read-out: CCK1 pKi (converted)
T2 construct: expressed in transfected cells; host or cells: CHO-K1
T2 sequence (P32238 1-428): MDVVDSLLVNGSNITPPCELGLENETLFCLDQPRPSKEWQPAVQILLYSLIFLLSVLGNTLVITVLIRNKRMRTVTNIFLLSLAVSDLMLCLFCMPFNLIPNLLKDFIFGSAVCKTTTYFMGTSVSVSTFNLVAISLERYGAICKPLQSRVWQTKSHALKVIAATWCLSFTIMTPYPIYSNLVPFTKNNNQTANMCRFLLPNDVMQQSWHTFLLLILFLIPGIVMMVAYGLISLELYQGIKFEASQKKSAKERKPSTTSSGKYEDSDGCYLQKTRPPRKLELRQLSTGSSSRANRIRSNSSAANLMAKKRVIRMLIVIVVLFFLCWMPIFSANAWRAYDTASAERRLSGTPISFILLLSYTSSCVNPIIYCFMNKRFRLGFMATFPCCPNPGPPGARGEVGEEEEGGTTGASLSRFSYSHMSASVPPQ
In short: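 Membranes from CHO-K1 cells stably expressing CCK-1 incubated 1 h at 21±3° C with 20 pM [125I]-BH-CCK-8S in HEPES buffer pH 7.2 containing 0.3 μM PD-134,308 to block CCK-2. Bound radioactivity read by gamma counting after filtration. pKi derived via Cheng-Prusoff, with specific binding defined using 2-NAP.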

CCOC(=O)[C@H](Cc1ccc(F)c(Br)c1)NC(=O)c1cc(Cl)c(Cl)cc1NS(=O)(=O)c1cccc2nsnc12 [Example 163, (S)-2-[2-(Benzo[1,2,5]thiadiazole-4-sulfonylamino)-4,5-dichloro-benzoylamino]-3-(3-bromo-4-fluoro-phenyl)-propionic acid ethyl ester]
Ki (CCK2 receptor): 398 nM
Ki (CCK-1 receptor): 126 nM
